# Experimental data from paper PMC8562569 (Nature cancer, 2021).
# Molecular target: PIKfyve (Homo sapiens, UniProt Q9Y2I7)
# Assay: cellular thermal shift assay in VCaP cells, […], […] h
# Assay type: cell-based
# Sequence of PIKfyve (Q9Y2I7 2-2098): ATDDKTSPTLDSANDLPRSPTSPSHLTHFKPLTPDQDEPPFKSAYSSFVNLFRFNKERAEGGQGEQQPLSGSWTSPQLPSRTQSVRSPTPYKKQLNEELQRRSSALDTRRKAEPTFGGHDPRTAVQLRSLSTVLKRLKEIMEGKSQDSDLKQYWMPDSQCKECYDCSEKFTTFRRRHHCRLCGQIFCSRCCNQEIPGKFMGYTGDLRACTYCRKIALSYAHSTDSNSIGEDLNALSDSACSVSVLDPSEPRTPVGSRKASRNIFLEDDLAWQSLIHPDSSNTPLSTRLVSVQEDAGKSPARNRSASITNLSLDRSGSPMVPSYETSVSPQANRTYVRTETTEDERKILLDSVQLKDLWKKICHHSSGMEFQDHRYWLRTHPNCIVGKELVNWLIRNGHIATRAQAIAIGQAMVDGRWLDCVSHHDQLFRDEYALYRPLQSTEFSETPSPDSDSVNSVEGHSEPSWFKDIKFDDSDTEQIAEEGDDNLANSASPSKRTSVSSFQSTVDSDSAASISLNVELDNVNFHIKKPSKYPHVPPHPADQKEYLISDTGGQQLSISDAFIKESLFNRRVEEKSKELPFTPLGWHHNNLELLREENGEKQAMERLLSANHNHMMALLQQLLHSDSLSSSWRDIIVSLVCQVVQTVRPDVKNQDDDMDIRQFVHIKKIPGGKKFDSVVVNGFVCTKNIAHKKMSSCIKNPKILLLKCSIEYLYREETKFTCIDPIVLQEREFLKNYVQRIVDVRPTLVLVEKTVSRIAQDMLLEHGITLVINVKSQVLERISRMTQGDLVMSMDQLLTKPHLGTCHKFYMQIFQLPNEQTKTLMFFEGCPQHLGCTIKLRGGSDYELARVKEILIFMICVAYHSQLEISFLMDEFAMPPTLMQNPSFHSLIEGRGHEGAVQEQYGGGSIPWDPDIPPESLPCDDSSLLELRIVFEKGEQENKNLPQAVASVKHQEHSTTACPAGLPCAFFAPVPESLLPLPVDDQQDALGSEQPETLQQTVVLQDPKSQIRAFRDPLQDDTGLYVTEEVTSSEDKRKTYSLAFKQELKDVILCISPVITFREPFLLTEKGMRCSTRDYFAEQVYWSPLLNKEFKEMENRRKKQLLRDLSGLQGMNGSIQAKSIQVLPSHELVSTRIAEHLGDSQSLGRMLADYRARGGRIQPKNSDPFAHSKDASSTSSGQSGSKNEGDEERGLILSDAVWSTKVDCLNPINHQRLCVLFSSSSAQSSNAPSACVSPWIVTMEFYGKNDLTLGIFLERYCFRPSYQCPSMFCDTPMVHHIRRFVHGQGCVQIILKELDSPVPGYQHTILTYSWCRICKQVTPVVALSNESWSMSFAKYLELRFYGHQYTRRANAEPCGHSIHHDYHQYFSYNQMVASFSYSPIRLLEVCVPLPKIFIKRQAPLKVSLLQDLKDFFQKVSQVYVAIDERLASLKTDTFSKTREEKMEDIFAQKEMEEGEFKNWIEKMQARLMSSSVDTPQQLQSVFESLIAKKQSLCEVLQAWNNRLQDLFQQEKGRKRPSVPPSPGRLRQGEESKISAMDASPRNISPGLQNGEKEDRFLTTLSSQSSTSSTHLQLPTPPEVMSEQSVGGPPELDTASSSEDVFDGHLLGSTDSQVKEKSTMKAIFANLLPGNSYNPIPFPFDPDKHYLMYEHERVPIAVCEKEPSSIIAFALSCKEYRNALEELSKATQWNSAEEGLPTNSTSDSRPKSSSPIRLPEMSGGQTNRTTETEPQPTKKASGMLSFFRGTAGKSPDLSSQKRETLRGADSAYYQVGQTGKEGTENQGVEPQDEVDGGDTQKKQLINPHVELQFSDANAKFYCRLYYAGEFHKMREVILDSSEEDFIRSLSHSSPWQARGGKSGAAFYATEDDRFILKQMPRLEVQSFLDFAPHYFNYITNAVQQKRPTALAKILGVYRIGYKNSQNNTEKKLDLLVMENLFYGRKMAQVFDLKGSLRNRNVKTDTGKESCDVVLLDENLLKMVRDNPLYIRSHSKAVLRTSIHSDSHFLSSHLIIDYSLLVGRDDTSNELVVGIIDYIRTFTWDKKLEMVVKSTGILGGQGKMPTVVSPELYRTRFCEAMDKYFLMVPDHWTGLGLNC
smiles,measurement,value
Cc1cccc(/C=N/Nc2cc(N3CCOCC3)nc(OCCc3ccccn3)n2)c1 [apilimod],"cellular thermal shift assay in VCaP cells, 1 μM, 2 h","cellular thermal shift assay in VCaP cells, with the known PIKfyve inhibitor apilimod serving as a positive control"
